Laboratory results published in patent publication US4680382A, “Analogues of actinomycin D” (priority 1986, dated 1987).
*1 amine or outer side, *2 acyl side, *3 side chain or, on linkers, in order; H or OH if unused. Where a SMILES comes first, the peptide text is derived from it. Bridges are numbered along the chain shown (N, C = ends). Roman numbers before positions name the chains, in order. [ ]: non-standard residue; d: D form. Actinocin(9to1) = Cc1c2oc3c(C)ccc(C(=O)[*:1])c3nc-2c(C(=O)[*:2])c(N)c1=O; NMeV = CN[C@H](C(=O)O)C(C)C; Sar = CNCC(=O)O

How the values were obtained:
[1] = Metabolism of tritiated drugs in tumor cell homogenate (sonicated P388 cells); assay type: in vitro ADME, murine; conditions: tumor cell homogenate (T), 16 hr; for Percent isolated: unconverted: 37° C.
Protocol: A method of using tumor cell sonicates was developed to study the metabolism of the analogues of AMD. By use of sonicated cells, the dilution effects that would occur if flasks of cultured cells were used are avoided. Although the cells are disrupted by this method, their enzyme systems appear to remain active. Large numbers of tumor cells (P388 murine leukemia) were sonicated in Earle's balanced salt solution (EBSS) and were incubated with tritiated AMD and its analogues 7a and 9a (Table II) for 16 hr. In another experiment, the analogues were treated with rat hepatic microsomes at 37° C. for 6 hr in the presence of a NADPH-generating system. The metabolic products were isolated and identified with the following results (Table II). […] In the microsomes, the major metabolites were in unconjugated forms; in the tumor cell homogenates, the major identified metabolites were glucuronide and sulfate conjugated forms. It should be pointed out that in these metabolic experiments, the identification of these glucuronide and/or sulfate conjugates was made only on the basis of the disappearance of the peaks from the HPLC chromatograms upon treatment with deconjugating enzymes glucarase.
A large number of P388 cells (10^8 cells) were sonicated in Earle's balanced salt solution (EBSS) in ice. Tritiated analogues 7a, 8a and AMD, 0.4 Ci/mmol, were added and the mixtures were incubated at 37° C. for 16 hr. Drugs in EBSS without the addition of the cell sonicates served as controls. The samples were treated with urea to bring the urea concentration to 5M. The procedure helped to free all drugs that associated noncovalently with DNA. After 60 min at room temperature, the samples were centrifuged through Amicon 1053 cone filters (molecular weight cut-off approximately 25000) after adjustment of pH to 5 to facilitate extraction of unconjugated metabolites in organic solvents.
Unconjugated or uncoupled products were first extracted with ethyl acetate (step A) and aliquots of aqueous layers were treated with equal volumes of glucarase (a preparation of β-glucuronidase and sulfatase) or with buffer (control); see following section. The glucuronide and the sulfate derivatives were thus deconjugated and the freed products were extracted in ethyl acetate (step B). A highly sensitive technique for detection of a series of AMD analogues using HPLC was employed; sensitivity of this assay ranges from 50 nmol when UV-visible absorbances are used to 1 pmol when radioactive analogues of appropriate specific activities are used.
The products in the ethyl acetate extracts were analyzed by HPLC using system I. Prior to deconjugation, the above aqueous layers were examined by systems II and III, which are more suitable for the water-soluble metabolites.
The aqueous layers from step B were combined with the material which was left as residues in the cones in step A. The residues in the cones were extracted in dilute sodium hydroxide and separated from the cell debris by centrifugation (2500 rpm), and the biopolymers were precipitated from the extract with excess ethanol. The precipitated polymers, mostly protein, were lyophilized and dissolved in 0.05M Tris-HCl and were fractionated on Superfine Sephacryl S-200 and the molecular weights of the major fractions were approximated. The major parts of radioactivity were confined to high molecular weight proteins with molecular weights above 67000. The amount of the tissue-bound material was estimated from the pellets in the above centrifugation (2500 rpm). The percentages were calculated on the basis of the total radioactive materials recovered. In most cases, it was over 90%.

[2] = system: P388 lymphocytic leukemia; assay: In vivo antitumor activity against P388 leukemia; set-up: species or system BDF1 mice; conditions: for surv (surviving mice/total mice at 60 days) / % ILS / MST (range): P388, at optimal dose; for % ILS: 100(T/C - 1); for MST (range): control 11.0 (9-12); for optimal dose: P388, ip, days 1, 5 and 9, optimal nontoxic dose
Protocol: The analogues were tested for their antitumor activities in P388 lymphocytic leukemia in male BDF1 mice. The tumor was implanted intraperitoneally (ip) with 10^6 cells. The drugs were also administered ip once daily on days 1, 5 and 9, beginning 1 day after tumor transplantation. Analogues were tested over a range of doses, but only the optimal nontoxic doses are listed.
^a 10^6 P388 cells implanted ip on day 0 into groups of eight
BDF1 male mice. Drugs administered ip. MST (range), median survival
time in days (range of individual animal deaths); % ILS, percent increase
in life span, calculated 100(T/C - 1), where T and C are median survival
times of treated and control animals; surv, number of surviving mice/tota

[3] = system: DNA; assay: Thermal denaturation of DNA (ΔTm); assay type: binding
Protocol: The "reverse" analogues bind to calf-thymus DNA, but the spectrophotometrically determined binding (Kapp and Bapp, equilibrium binding values) constants are found to be lower than those of AMD. The binding is also measured by thermal denaturation of DNA.
The equilibrium binding constants (Kapp and Bapp) of the "reverse" methyl 7a and the "reverse" phenyl 8a were determined from the Scatchard plots of binding isotherms; the Scatchard plots are produced according to the previously described methods using calf-thymus DNA [Sengupta et al, Biochem. Biophys. Acta 521, 89 (1978)]. The Kapp values are 2.5×10^6 and 2.3×10^6 M^-1, respectively; corresponding Bapp values are 0.038 and 0.036. […] But, these "reverse" analogues associate with DNA less strongly; their frequency of binding is also lower compared to that of AMD. However, the "reverse" analogues fail to cause any measurable change in the ratio of the intrinsic viscosity (γ) of DNA with the increasing ratios of [ligand]/DNA base pair (r), even when low molecular weight DNAs (0.5×10^5 to 1.0×10^5) were employed.
Melting points are determined on a Thomas-Hoover melting point apparatus at a heating rate of 2° C./min. Thin-layer chromatography was performed on silica gel plates (Brinkmann Instrument Inc.). Solvent systems were (A) EtOAc-acetone (4:1), (B) CHCl3 -MeOH (9:1) and (C) Cifferri, the organic phase of the mixture EtOAc-MeOH-H2 O (20:1:20). High-performance liquid chromatography was carried out on a Varian Model 5020 gradient liquid chromatograph equipped with a CD-111L chromatography data system and fitted with a Varian reversed-phase C18 column with the following solvent systems: I, CH3 CN-5 mM NH4 OAc buffer, pH 6.4 (68:32 isocratic), flow rate 1.5 mL/min; II, 65-95% water-methanol gradient for 70 min, 1 mL/min; III, 10-90% H2 O-MeOH gradient for 120 min, 1 mL/min, with UV-visible variable- and fixed-wavelength dual detectors at 254, 440, 470 and 520 nm. IR spectra were obtained on a Perkin-Elmer Model 237 Infra Cord with KBr micropellets or in chloroform solutions. UV-visible spectra were obtained on a Gilford 250 spectrophorometer, which, with the addition of a base-line reference compensator (Analog Multiplexer 5053) and thermoprogrammer, auto four cell programmer and thermoelectric cell holder 2577, were used to obtain thermal denaturation curves. Specific rotation values were determined in chloroform solutions with a Cary 60 spectropolarimeter. NMR spectra were obtained in a JEOL FQ-90 MHz spectrometer equipped with Fourier transform. EPR spectra analyses were recorded in a Varian E-9 EPR spectrometer. All elemental analyses were within ±0.4%.

| Compound | Percent isolated: "tissue" bound [1] | Percent isolated: protein conjugates [1] | Percent isolated: unidentified metabolite [1] | Percent metabolite isolated: 2a glucuronide and/or sulfate [1] | Percent metabolite isolated: 7-hydroxy-AMD (2a) [1] | Percent isolated: unconverted [1] | surv (surviving mice/total mice at 60 days) [2] | % ILS [2] | MST (range) [2] | optimal dose [2] | Percent metabolite isolated: 4a glucuronide and/or sulfate [1] | Percent metabolite isolated: "symmetrical" AMD (4a) [1] | ΔTm (DNA melting temperature) [3] |
| --- | --- | --- | --- | --- | --- | --- | --- | --- | --- | --- | --- | --- | --- |
| Cc1nc2c(C(=O)NC3C(=O)NC(C(C)C)C(=O)N4CCCC4C(=O)N(C)CC(=O)N(C)C(C(C)C)C(=O)OC3C)c3nc4c(C(=O)NC5C(=O)NC(C(C)C)C(=O)N6CCCC6C(=O)N(C)CC(=O)N(C)C(C(C)C)C(=O)OC5C)cc(=O)c(C)c-4oc3c(C)c2o1 (centres unmarked) [9a] | 7.5% | 5.5% | 46.3% | 12.2% | 8.5% | 20% | 0/0 | 164% | 29.0 (19-58) days | 1200.0 μg/kg per inj |  |  |  |
| Cc1nc2c(C(=O)NC3C(=O)NC(C(C)C)C(=O)N4CCCC4C(=O)N(C)CC(=O)N(C)C(C(C)C)C(=O)OC3C)c3nc4c(C(=O)NC5C(=O)NC(C(C)C)C(=O)N6CCCC6C(=O)N(C)CC(=O)N(C)C(C(C)C)C(=O)OC5C)c(N)c(=O)c(C)c-4oc3c(C)c2o1 [7a, 7-Amino-2,9,11-trimethyl-8H-8-oxooxazolo [4,5-b]phenoxazine 4,6-bis[carbonyl-L-threonyl-D-valyl-L-prolylsarcosyl-L-N-methylvaline-(threonine hydroxyl)] lactone] | 8.8% | 5.5% | 12.7% |  |  | 40% | 3/8 | 277% | 42.5 (39-43) days | 450.0 μg/kg per inj | 17.5% | 15.5% | 5.5±0.3 °C |
| Cc1c2oc3c(C)ccc(C(=O)N[C@@H]4C(=O)N[C@H](C(C)C)C(=O)N5CCC[C@H]5C(=O)N(C)CC(=O)N(C)[C@@H](C(C)C)C(=O)O[C@@H]4C)c3nc-2c(C(=O)N[C@@H]2C(=O)N[C@H](C(C)C)C(=O)N3CCC[C@H]3C(=O)N(C)CC(=O)N(C)[C@@H](C(C)C)C(=O)O[C@@H]2C)c(N)c1=O [AMD, Actinomycin D] (I: T[dV]P[Sar][NMeV] / II: T[dV]P[Sar][NMeV]; ester I:1-I:C, II:1-II:C; linker I:N-II:N via Actinocin(9to1)) |  |  |  |  |  | 100% | 1/8 | 136% | 26.0 (16-37) days | 300.0 μg/kg per inj |  |  | 7.1±0.15 °C |
| Cc1c2oc3c(C)c(O)c(N)c(C(=O)NC4C(=O)NC(C(C)C)C(=O)N5CCCC5C(=O)N(C)CC(=O)N(C)C(C(C)C)C(=O)OC4C)c3nc-2c(C(=O)NC2C(=O)NC(C(C)C)C(=O)N3CCCC3C(=O)N(C)CC(=O)N(C)C(C(C)C)C(=O)OC2C)c(N)c1=O (centres unmarked) [4a, 7-Hydroxy-8-amino-actinomycin D] |  |  |  |  |  |  | 4/8 | 382% | 52.0 (48-55) days | 600.0 μg/kg per inj |  |  | 7.9±0.2 °C |
